Columns and labels:
[1] = test system: progeria senescent fibroblasts (passage 17); test: SA-β-galactosidase staining; assay type: cell-based, human; conditions: CP-466722 0.1 μM, 4 weeks
[2] = test system: progeria senescent fibroblasts (passage 17); test: DNA comet assay; assay type: cell-based, human; conditions: CP-466722 0.1 μM, 4 weeks
Protocol: To determine the extent of recovery of the senescent cells to the DNA damage in accordance with the ATM-kinase inhibitor, the DNA comet assay (Trevigen, 4250-050-K) was carried out according to the protocol of the manufacturer. The principle of the DNA comet assay is based on gel electrophoresis. The damaged DNA moves farther away in the electrophoresis process than the undamaged DNA, resulting in the formation of a comet-tail shape. Afterwards, a slide used herein was stained with cyber green (SYBR Green), so that the tail length of the DNA fragment was measured by using fluorescence microscopy to confirm the extent of the DNA damage. The extent of the DNA damage may be measured as a tail moment value obtained by multiplying tail DNA % by the distance of migration of DNA fragmentation from the nucleus or the tail length. […]
To determine the extent of recovery of the senescent cells to the DNA damage in accordance with the ATM-kinase inhibitor, the DNA comet assay (Trevigen, 4250-050-K) was carried out according to the protocol of the manufacturer. […] Afterwards, a slide used herein was stained with cyber green (SYBR Green), so that the tail length of the DAN fragment was measured by using fluorescence microscopy to confirm the extent of the DNA damage. […]

With COc1cc2ncnc(-n3nc(-c4ccccn4)nc3N)c2cc1OC [CP-466722, 2-(6,7-dimethoxyquinazolin-4-yl)-5-(pyridin-2-yl)-2H-1,2,4-triazol-3-amine] as the molecule, how does the “number of cells that express β-galactosidase vs DMSO control” value [1] read?
Its value is “significantly decreased”.

And the “DNA damage (tail moment) vs DMSO control” value [2]?
The value was “significantly decreased”.

Source: patent publication US9770451B2, “Composition including ATM inhibitor for reducing cellular senescence and use of the composition” (Samsung Electronics Co., Ltd., priority 2014, dated 2017)
